The text below walks through data of patent publication US5061720A, “Substituted-4-thiazolidinone derivatives” (A. H. Robins Company, Inc., priority 1989, dated 1991).

One experiment addresses T1, 5-lipoxygenase (Homo sapiens, UniProt P09917).
T1 construct: Polymorphonuclear leukocytes were obtained from whole human blood; endogenous in cells; host or cells: human polymorphonuclear leukocytes from whole blood, stimulated with A23187
T1 sequence (P09917 1-674): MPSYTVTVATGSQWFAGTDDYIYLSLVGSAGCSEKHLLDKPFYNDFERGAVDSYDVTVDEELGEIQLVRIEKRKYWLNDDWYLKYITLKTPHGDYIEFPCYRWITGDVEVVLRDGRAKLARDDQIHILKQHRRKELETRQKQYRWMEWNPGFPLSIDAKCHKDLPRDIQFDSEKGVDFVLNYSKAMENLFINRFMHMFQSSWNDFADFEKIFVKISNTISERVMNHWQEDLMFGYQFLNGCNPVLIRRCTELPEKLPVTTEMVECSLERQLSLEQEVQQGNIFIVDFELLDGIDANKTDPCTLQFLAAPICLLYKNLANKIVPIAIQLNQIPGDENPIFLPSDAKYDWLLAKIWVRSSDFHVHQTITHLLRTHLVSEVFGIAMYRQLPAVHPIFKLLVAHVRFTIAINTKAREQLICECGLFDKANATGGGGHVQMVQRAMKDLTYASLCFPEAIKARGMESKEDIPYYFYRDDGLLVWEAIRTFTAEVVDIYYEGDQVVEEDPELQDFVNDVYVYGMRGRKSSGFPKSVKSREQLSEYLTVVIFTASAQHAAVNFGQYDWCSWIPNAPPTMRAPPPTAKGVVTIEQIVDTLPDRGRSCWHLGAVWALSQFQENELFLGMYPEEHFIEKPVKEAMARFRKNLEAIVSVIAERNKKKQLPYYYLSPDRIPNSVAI
Kind of experiment: 5-Lipoxygenase Assay (production of 5-HETE from arachidonic acid in polymorphonuclear leukocytes stimulated by A23187). The experiment is classed as cell-based. The following applies: inhibition of production of 5-HETE, human PMN cells, calcium ionophore A23187, 37° C. How it is done:
The production of 5-HETE from arachidonic acid in human polymorphonuclear leukocytes stimulated by the calcium ionophore A23187 (Calbiochemicals) was measured by reverse phase high pressure liquid chromatography. This procedure is a modification of the procedure of Sun and McGuire, PROSTAGLANDINS, 26, 211-221 (1983). Addition of substances to the test system that inhibit 5-lipoxygenases cause a decrease in the production of 5-HETE and is thus determined in comparison to reference and control articles also added to the reaction system.
Polymorphonuclear leukocytes were obtained from whole human blood by the procedure of Skoog and Beck, BLOOD, 11, 436-454 (1956). […] The tube is incubated for an additional 10 min at 37° C. and the incubations terminated by addition of 1.5 mL of acetone and cooling to 0° C. 13-Hydroxyoctadecatrienoic acid (13-HODT) (5 μL of 0.2 mM methanolic solution) is added for an internal reference standard. The tube is stored at -20° C. under argon for 4-18 hr. Centrifugation at 1000×g for 10 min causes protein precipitate to form a pellet. The acetone layer is evaporated under a stream of nitrogen and the resultant lipid residue containing the arachidonic acid metabolites and 13-HODT is dissolved in 0.5 mL of methanol and stored at -20° C. until analyzed by high-pressure liquid chromatography (HPLC).
For analysis, a 150-μL aliquot of the methanol solution is evaporated under a stream of argon. The residue is reconstituted with 100 μL of a 1:1 methanol-water mixture and sonified for 15-20 seconds and the mixture analyzed by HPLC (C18 reversed phase Econophere column, methanol:water:acetic acid 79:25:0.2 v/v/v used for elution). Test, reference, and control articles are evaluated in duplicate. The inhibition is reported as that concentration which will inhibit by 50% the production of 5-HETE.

The next experiment has as its target T2, cyclooxygenase (Ovis aries, UniProt P05979).
T2 construct: Lipid-depleted Sheep Seminal Vesicle Microsome Suspension; from tissue; host or cells: sheep seminal vesicle microsomes (lipid-depleted powder, detergent solubilized)
T2 sequence (P05979 25-600): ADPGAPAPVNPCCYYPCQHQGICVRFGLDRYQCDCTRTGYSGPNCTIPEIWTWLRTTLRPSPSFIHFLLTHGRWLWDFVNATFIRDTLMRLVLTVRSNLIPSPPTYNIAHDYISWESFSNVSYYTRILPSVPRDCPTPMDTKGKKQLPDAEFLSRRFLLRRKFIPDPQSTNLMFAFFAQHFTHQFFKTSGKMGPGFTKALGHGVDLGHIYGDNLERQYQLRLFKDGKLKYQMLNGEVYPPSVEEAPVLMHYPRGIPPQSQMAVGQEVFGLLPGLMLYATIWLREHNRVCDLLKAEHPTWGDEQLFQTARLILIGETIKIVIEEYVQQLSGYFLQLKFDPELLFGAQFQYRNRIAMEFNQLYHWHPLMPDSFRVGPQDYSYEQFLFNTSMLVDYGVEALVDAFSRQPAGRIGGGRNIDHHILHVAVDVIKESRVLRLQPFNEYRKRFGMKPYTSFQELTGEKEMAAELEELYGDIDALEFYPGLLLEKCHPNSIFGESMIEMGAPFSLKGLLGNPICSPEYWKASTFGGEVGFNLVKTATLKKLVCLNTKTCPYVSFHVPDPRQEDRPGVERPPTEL
Put plainly: Cyclooxygenase Assay (polarigraphic oxygen consumption, lipid-depleted sheep seminal vesicle microsomes). The experiment is classed as biochemical. As to conditions: 30° C., 2 min incubation, ammonium arachidonate substrate. How it is done: Cyclooxygenase activity was determined polarigraphically with detergent solubilized, lipid-depleted sheep seminal vesical microsomes. Addition of test articles that inhibit cyclooxygenase, including reference standards, cause a decrease in the rate of oxygen consumption in the reactions. Cyclooxygenase activity is determined using the following procedures:
I. Preparation of Test Materials
1. Lipid-Depleted Sheep Seminal Vesicle Microsomal Powder. This preparation follows the procedure of G. Graff et al. J. Biol. Chem. 253, 7662 (1978).
2. Ammonium Arachidonate Solution. A 250 μL aliquot of 20.0 mM arachidonic acid in absolute ethanol and a 50-μL aliquot of concentrated ammonium hydroxide is placed into a test tube. The solvent and excess ammonium hydroxide is evaporated under a stream of nitrogen at room temperature. The ammonium arachidonate residue is dissolved in 500 μL of 100 mM 2-amino-2-hydroxymethyl-1,3-propanediol hydrochloride (Tris HCl) buffer (pH 8.0) by using a vortex mixer. The final concentration of ammonium arachidonate (working solution) is 10.0 mM.
3. Enzyme Buffer 100 mM Tris HCl (pH 8.0) containing 2.0 mM phenol, 5.0 mM ethylenediaminetetraacetic acid (EDTA), 5.0 mM diethyldithiocarbamic acid and 1.0% Tween 20.
4. Reaction Buffer 100 mM Tris HCl (pH 8.0) containing 2.0 μM hematin and 1.0 mM phenol (prepared daily).
5. Detergent Solubilized Lipid-depleted Sheep Seminal Vesicle Microsome Suspension. Ten mg (solid) of lipid-depleted microsomal powder from sheep seminal vesicles is suspended in 1.0 mL of enzyme buffer and kept at 4° C. until used.
6. Solutions of Test (Formula I compound) or Reference Articles. Test and reference articles are dissolved in the reaction buffer prepared in 4) or a solvent that will not interfere with cyclooxygenase activity, e.g., dimethylsulfoxide, ethanol or acetone.
II. Cyclooxygenase Inhibition Assay
Three mL of the reaction buffer and 20 μL of the microsomal enzyme suspension are placed in a Yellow Springs Instrument (YSI) oxygen chamber where the temperature is maintained at 30° C. by means of a temperature controlled circulating water bath. Aliquots of the solutions containing ≤[…] of Formula I compound (test article) or reference article [see 6) above] are added to the YSI chamber and incubated for 2 minutes. The reaction is initiated by addition of 30 μL of the 10 mM ammonium arachidonate solution and cyclooxygenase activity determined polarigraphically using an oxygen electrode by measuring the rate of oxygen consumption [Cook et al., Anal. Biochem 96 341-51 (1979) and Cook and Lands, Can. J. Biochem. 53, 1220-1231 (1975)].
Test, reference, and control articles were evaluated in triplicate. Cyclooxygenase activity was determined from the slope (mv/unit time) of the recorder tracing with 1 mV being proportional to a 2.34 μM change in oxygen concentration.
The IC50 (concentration of test or reference article that inhibits the reaction by 50%) was calculated from cumulative plots relating the extent of inhibition of cyclooxygenase activity in control group assays to increasing concentrations of test article. Where no inhibition exists, the IC50 is expressed as greater than the highest concentration of the drug tested.

The next experiment deals with guinea pig skin. Kind of experiment: UV-Erythema in Guinea Pigs. As to conditions: topical, 50 μL of cream with 1.0 mg test article per 1 g, immediately after UV exposure; active = composite score significantly lower than control, Dunnett's t-test p≤0.05. The arrangement: key: +: active; -: inactive. The experiment is classed as in vivo. How it is done:
I. Preparation of Formulation (cream)
All drugs tested were prepared by thoroughly incorporating 1.0 mg of the test article into 1 g of a pH 7.0 cream vehicle of the following composition.
methyl glucose sesquistearate 1.6%
methyl gluceth-20 sesquistearate 2.4%
emulsifying wax, N.F. 5.0%
mineral oil (heavy), U.S.P. 1.0%
white petrolatum, U.S.P. 5.0%
stearic acid, U.S.P. 2.5%
sodium benzoate, N.F. 0.1%
magnesium aluminum silicate 1.5%
deionized water, pH 7.0 64.8%
The preparations were packed into 1-cc plastic syringes.
II. Pharmacological Assay
The backs of female, English short hair guinea pigs (250-500 g) were shaved and depilated with Nair®. Control and treated groups each consisted of 5 animals, and selection of the animals and the control and treatment groups was achieved by random procedures. A rubber sheet with three one-half inch holes spaced one-half inch apart was draped over backs of the guinea pigs. The guinea pigs were then exposed to ultraviolet (UV) light (Hanovia Model 10, ~650-800 μW/cm^2) for 15 seconds by holding the animals against the light source. Fifty μL of the test drug or reference drug (indomethacin or bromfenac) preparation were immediately rubbed onto the skin, either on the area exposed to UV light or to an area adjacent to the UV light exposed skin. The degree of erythema for each exposed area was scored at various times following exposure according to the following scale:
1=slight redness with faint outline
2=moderate to marked redness with distinct outline
The score was totaled for each guinea pig (maximum score is 6). The Dunnett's t-test was used to determine significant (p≤0.05) differences from the control (placebo treated) group.

As for `CCCC[C@@H]1S[C@H](c2cccc(Oc3ccccc3)c2)N(c2ccc(O)cc2)C1=O` (relative stereo) [Example 3, 5-Butyl-3-(4-hydroxyphenyl)-2-(3-phenoxyphenyl)-4-thiazolidinone], the IC50 worked out at 5 µM at 5-lipoxygenase and 8000 nM against cyclooxygenase.

At cyclooxygenase, `CCCC[C@@H]1S[C@@H](c2cccc(Oc3ccccc3)c2)N(CCCCc2ccc(C(=O)OCC)cc2)C1=O` (relative stereo) [Example 5, 4-[4-[5-Butyl-4-oxo-2-(3-phenoxyphenyl)-3-thiazolidinyl]butyl]benzoic acid ethyl ester] displayed an IC50 of 70 nM.

In turn, `CCCC[C@@H]1S[C@H](c2cccc(Oc3ccccc3)c2)N(CCCCc2ccc(C(=O)OCC)cc2)C1=O` (relative stereo) [Example 6, 4-[4-[5-Butyl-4-oxo-2-(3-phenoxyphenyl)-3-thiazolidinyl]butyl]benzoic acid ethyl ester] gave a 50% inhibitory concentration (IC50) on cyclooxygenase of 50 nM.

As for `CCCC[C@@H]1S[C@@H](c2cccc(C(=O)c3ccccc3)c2)N(c2ccc(O)cc2)C1=O` (relative stereo) [Example 22, 2-(3-Benzoylphenyl)-5-butyl-3-(4-hydroxyphenyl)-4-thiazolidinone], the IC50 on 5-lipoxygenase is 6.4 µM; against cyclooxygenase, 2200 nM.

With `CCCCC1SC(c2cccc(Oc3ccccc3)c2)N(CCc2ccccn2)C1=O` (stereo not shown) [Example 18, 5-Butyl-2-(3-phenoxyphenyl)-3-[2-(2-pyridinyl)ethyl]-4-thiazolidinone], the half-maximal inhibitory concentration (IC50) at 5-lipoxygenase came to 7.8 µM; against cyclooxygenase it was 120 nM.

As to `CCCCC1SC(c2cccc(Oc3ccccc3)c2)N(CCCOc2ccc(C(=O)O)cc2)C1=O` (stereo not shown) [Example 30, 4-[3-[5-Butyl-4-oxo-2-(3-phenoxyphenyl)-3-thiazolidinyl]propoxy]benzoic acid], the figures for the IC50 on 5-lipoxygenase and at cyclooxygenase were 3.5 µM and 1600 nM, respectively.

With `CCCCC1SC(c2cccc(Oc3ccccc3)c2)N(CCCCCCC(=O)OCC)C1=O` (stereo not shown) [Example 55, 5-Butyl-4-oxo-2-(3-phenoxyphenyl)-3-thiazolidineheptanoic acid ethyl ester], the IC50 was approximately 10 µM on 5-lipoxygenase and 1000 nM at cyclooxygenase.

For the compound `CCCCC1SC(c2cccc(Oc3ccccc3)c2)N(CCc2ccc(O)cc2)C1=O` (stereo not shown) [Example 59, 5-Butyl-3-[2-(4-hydroxyphenyl)ethyl]-2-(3-phenoxyphenyl)-4-thiazolidinone], in the experiment on guinea pig skin, the “U.V. erythema (+ = active, - = inactive)” value is listed as “+”.

What is called IC50 is the concentration at which inhibition is half-maximal.
